This is an account of results in patent US4284773A, “1,2,3,5-Tetrahydroimidazothienopyrimidin-2-ones” (Daiichi Seiyaku Co., Ltd., priority 1978, dated 1981).

Data set [1] has as its system Platelet aggregation induced by collagen suspension. The data set is described as follows: ex vivo inhibition of collagen-induced platelet aggregation after oral administration in rat. The following applies: 50 mg/kg (p.o) in rat, blood collected 2 hours after oral administration, vs vehicle control rats. On the procedure: Blood samples were collected 2 hours after oral administration of the
compound to be tested or vehicle alone. Platelet rich plasmas were
obtained by centrifugation of the blood. Platelet aggregation was induced
by adding collagen suspension to the platelet rich plasma and was compare
with that observed with the platelet rich plasma from the control rats

Data set [2] concerns collagen (Coll) induced platelet aggregation. The data set is described as follows: in vitro inhibition of collagen (Coll) induced platelet aggregation, aggregometer method of Born, rat platelet rich plasma. In kind it is cell-based. The following applies: rat citrated platelet rich plasma, 50% inhibition. The protocol: (§1) The aggregometer method of Born [G. V. Born, Nature, 194, 927 (1962)] was used to assess the in vitro activity of the various compounds as to inhibition of adenosine diphosphate (ADP) and collagen (Coll) induced platelet aggregation. Platelet rich plasma (PRP) was separated by centrifugation from citrated (0.313%) rat blood.
(§2) A methanolic solution of the test compound was added to the PRP, then aggregation was induced by adding to the mixture of ADP solution containing CaCl2 or a collagen suspension prepared according to the method described by Ashida et al [S. Ashida and Y. Abiko, Thromb. Diath. Haemorrh., 30, 528 (1975)], and the optical density of the resulting mixture was determined. […] A dose response curve was drawn from the results obtained above and the effective concentration giving a 50% inhibition (EC50) was calculated.

Data set [3] deals with adenosine diphosphate (ADP) induced platelet aggregation. The experiment in a line: in vitro inhibition of adenosine diphosphate (ADP) induced platelet aggregation, aggregometer method of Born, rat platelet rich plasma. The following applies: rat citrated platelet rich plasma, 50% inhibition. In kind it is cell-based. On the procedure:
as §1, §2

The nature of data set [4]: blood pressure of normal rat after oral administration. The following applies: 50 mg/kg (p.o) in rat; 5-6 hours after oral administration. The class given is in vivo. The protocol:
The blood pressure of normal rat was measured at 5-6 hours after the oral administration at a dose of 50 mg/kg.

Structures are written as SMILES. pEC50: −log10 of the molar value.

Turning to `CCCc1c(CC)sc2c1CN1CC(=O)NC1=N2` [Compound 15], the “Inhibition of Platelet Aggregation ex vivo % Inhibition” value in data set [1] amounted to 90%. Besides, the pEC50 in data set [2] is 5.66; in data set [3], 5.52.

Take `Cc1cccc2c1CN1CC(=O)NC1=N2` [BL-3459, 6-methyl-1,2,3,5-tetrahydroimidazo[2,1-b]quinazolin-2-one, reference compound]: in data set [4], the “Blood Pressure % Reduction” value is 35 + 3%. In addition, the “Inhibition of Platelet Aggregation ex vivo % Inhibition” value in data set [1] was found to be 57%. For the same compound, the pEC50 in data set [2] is 6.10; in data set [3], 5.30.

In the case of `Cc1c(Cl)sc2c1CN1CC(=O)NC1=N2` [Compound 6], the “Inhibition of Platelet Aggregation ex vivo % Inhibition” value in data set [1] turned out to be 24%. The pEC50 in data set [2] was 5.72; in data set [3], 5.38.

As to `O=C1CN2Cc3sccc3N=C2N1` [Compound 11], the results for the pEC50 in data set [2] and in data set [3] were 5.00 and 4.07, respectively.

As for `Cc1sc2c(c1C)CN1CC(=O)NC1=N2` [Compound 1, 6,7-dimethyl-1,2,3,5-tetrahydroimidazo[1,2-a]thieno[2,3-d]pyrimidin-2-one], the “Blood Pressure % Reduction” value in data set [4] stood at 5 ± 3%. Further, in data set [1], the “Inhibition of Platelet Aggregation ex vivo % Inhibition” value is on record as 84%. For the same compound, the values for the pEC50 in data set [2] and in data set [3] were 6.00 and 5.30, respectively.

On to `CCCCCc1sc2c(c1C)CN1CC(=O)NC1=N2` [Compound 17], for which the pEC50 in data set [2] is 6.72; in data set [3] it was 5.70.

In the case of `O=C1CN2Cc3c(sc4c3CCCC4)N=C2N1` [Compound 8, 1,2,3,5,6,7,8,9-octahydroimidazo[1,2-a][1]benzothieno[2,3-d]pyrimidin-2-one], the “Blood Pressure % Reduction” value in data set [4] came to 8 ± 2%. The “Inhibition of Platelet Aggregation ex vivo % Inhibition” value in data set [1] was 57%. Also, the pEC50 was 7.00 in data set [2] and 5.30 in data set [3].

`Cc1scc2c1CN1CC(=O)NC1=N2` [Compound 14]: the “Inhibition of Platelet Aggregation ex vivo % Inhibition” value in data set [1] was 32%. For the same compound, the pEC50 in data set [2] was 5.46; in data set [3], 4.77.

In the case of `O=C1CN2Cc3c(sc4c3CCCCC4)N=C2N1` [Compound 9], the pEC50 is 4.82 in data set [2] and 4.70 in data set [3].

As to `CCCc1sc2c(c1C)CN1CC(=O)NC1=N2` [Compound 16], the “Inhibition of Platelet Aggregation ex vivo % Inhibition” value in data set [1] amounted to 60%. For the same compound, the pEC50 in data set [2] was 7.10; in data set [3] it was 6.24.

With `CC1C(=O)NC2=Nc3sc4c(c3CN21)CCCC4` (stereo not shown) [Compound 18], the pEC50 in data set [2] is 6.22; in data set [3], 4.32.

Consider `Cc1csc2c1CN1CC(=O)NC1=N2` [Compound 4], for which the pEC50 in data set [2] is 4.82; in data set [3], 4.72.
